From ChEMBL document CHEMBL2321711, “2'-Fluoro-6'-methylene-carbocyclic adenosine phosphoramidate (FMCAP) prodrug: in vitro anti-HBV activity against the lamivudine-entecavir resistant triple mutant and its mechanism of action” (Bioorg Med Chem Lett, 2013) come the findings set out here.

The subject of data set [1] is HepG2. Briefly: Mitochondrial toxicity in human HepG2 cells assessed as lactate dehydrogenase release up to 100 uM. It counts as cell-based.
The test system of data set [2] is Hepatitis B virus. Briefly: Antiviral activity against wild type Hepatitis B virus infected in human HuH7 cells. It counts as functional, organism-based. The following applies: Huh-7.
For data set [3], the system named is Hepatitis B virus. Nature of the data set: Antiviral activity against entecavir-resistant Hepatitis B virus harboring L180M/M204V/S202G triple mutant infected in human HuH7 cells. It counts as functional, organism-based. The following applies: Huh-7.
Data set [4] can be described thus: Cytotoxicity against human HuH7 cells. It counts as cell-based, Huh-7.
In data set [5] the test system is Hepatitis B virus. Briefly: Selectivity ratio of EC50 for entecavir-resistant Hepatitis B virus harboring L180M/M204V/S202G triple mutant to EC50 for wild type Hepatitis B virus. It counts as functional.
For data set [6], the system named is HepG2. Briefly: Mitochondrial toxicity in human HepG2 cells assessed as lactate dehydrogenase release up to 200 uM. It counts as cell-based.

`C=C1[C@@H](n2cnc3c(N)ncnc32)[C@H](F)[C@H](O)[C@H]1CO`: in the data set on HepG2 [1], the Activity entry is recorded as “Non-toxic”. In addition, the figures for the EC50 in the data set on Hepatitis B virus [2] and in the data set on Hepatitis B virus [3] were 548 nM and 670 nM, respectively. This compound registered an EC90 in the data set on Hepatitis B virus [2] of 6000 nM. Also, the half-maximal cytotoxic concentration (CC50) in data set [4] is over 300 µM.
In the data set on Hepatitis B virus [2], `C=C1[C@@H](n2cnc3c(N)ncnc32)[C@H](F)[C@H](O)[C@H]1COP(=O)(N[C@@H](C)C(=O)OC)Oc1ccccc1` (stereo not given in full) came in with an EC50 of 62 nM and an EC90 of 460 nM. In the data set with Hepatitis B virus [3], this compound returned a concentration giving a half-maximal response (EC50) of 54 nM. The compound also returned a half-maximal cytotoxic concentration (CC50) in data set [4] of over 300 µM.
In the case of `C=C1[C@H](CO)[C@@H](O)C[C@@H]1n1cnc2c(=O)[nH]c(N)nc21.O` [ENTECAVIR], the “Ratio EC50” value in the data set with Hepatitis B virus [5] turned out to be 150. In the data set with Hepatitis B virus [2], this compound displayed an EC50 of 8 nM and a 90% effect concentration (EC90) of 33 nM. The same compound gave an EC50 in the data set with Hepatitis B virus [3] of 1200 nM. This compound registered a 50% cytotoxic concentration (CC50) in data set [4] of 28 µM.
In the case of `Nc1ccn([C@@H]2CS[C@H](CO)O2)c(=O)n1` [LAMIVUDINE], in the data set on HepG2 [6], the Activity entry was “Non-toxic”. In the data set with Hepatitis B virus [2], this compound showed an EC50 of 56 nM and an EC90 of 142 nM. Moreover, the EC50 with Hepatitis B virus [3] was over 500000 nM. Besides, the CC50 in data set [4] is over 300 µM.
Consider `Cc1cn([C@H]2C[C@H](N=[N+]=[N-])[C@@H](CO)O2)c(=O)[nH]c1=O` [ZIDOVUDINE], for which the Activity entry in the data set with HepG2 [6] is “Toxic”.

In general, EC50 refers to the concentration giving half of the maximal effect. Read a low EC50 as a more potent agent. For orientation: EC90 means the point of the concentration-response curve where the effect stands at 90%. Read a high EC90 as a need for much substance. A word on the CC50: it is the concentration at which the toxic effect on the cells reaches its halfway point. Low readings indicate harm at low concentration, high ones better tolerance by the cells.
